Test results taken from publication PMC5983452 (PLoS ONE, 2018).
“And” between values parts separate entries of the source, which are not always exact repeats. Equal entries are not always repeated. “Also recorded” adds a separate entry of the source. Structures can show the parent of a compound that is named as a salt. One block for each compound: values may come before it.

Experiments:
in vitro [1] = format: in vitro ADME, beagle dogs; conditions: male, beagle, dog, microsomes, pH 7.4
A549 cells = assay: Trametinib growth inhibition in combination with EPZ028862; format: cell-based; conditions: 2, 5 and 7 days
From the text: Plotted data is the average of three biological replicates. Error bars represent standard deviation. (PDF) Click here for additional data file.

in vitro [2] = conditions: human, plasma, pH 7.4, Human fu (unbound fraction)
Procedure: (§2) Caco-2 permeability. Caco-2 cells (obtained from the ATCC), between passage numbers 40 to 60, were seeded onto Millipore
(§3) Multiscreen plates at 1x10^5 cells/cm2 in Dulbecco's Modified Eagle Medium. Media was changed every two or three days. On
(§4) Day 20, the permeability study was performed using Hanks Balanced Salt Solution (HBSS) pH 7.4 buffer with 25 mM HEPES and
(§5) Incubations were carried out in an atmosphere of 5% CO2 with a relative humidity of
(§6) The monolayers were prepared by rinsing both basolateral and apical surfaces twice with HBSS at 37°C. Cells were
(§7) then incubated with HBSS in both apical and basolateral compartments for 40 min to stabilize physiological parameters. HBSS […]
(§8) removed and apical and basolateral samples diluted for analysis by LC-MS/MS. Permeability was assessed in duplicate, on two
(§9) different occasions. […] Compounds were quantified by LC-MS/MS analysis using a 5 point calibration curve. The starting concentration (C0) was determined from the dosing solution and
(§10) experimental recovery calculated from C0 and both apical and basolateral compartment concentrations. […]
(§11) (Papp) for each compound was calculated as: (dQ/dt)/(C0xA), where dQ/dt is the rate of permeation of the drug across the cells, C0 […]
(§12) Plasma protein binding. Plasma protein binding was assessed by equilibrium dialysis utilizing the HT-dialysis cell format with a […]

[3] = Hepatocyte stability, rat; format: in vitro ADME, SD rats
[4] = Dog pharmacokinetic study; format: in vivo, male beagle dogs; conditions: male Beagle
Procedure: (§1) 2. […] Food was returned 4 hours after dosing. […] 4. […] Food was returned 4 hours after dosing. […] Supplemental Results:SMYD2 compound characterization […] The […] nM (Figure S8A).

[5] = system: panel of 140 cell lines grown in matrigel; assay: cells; conditions: read-out: growth effects in panel of 140 cell lines grown in matrigel (none observed up to)
in vitro [6] = conditions: human
Procedure: as §2, §3, §4, §5, §6
(§13) then incubated with HBSS in both apical and basolateral compartments for 40 min to stabilize physiological parameters. HBSS
(§14) was then removed from the apical or basolateral compartment and replaced with 10 µM test compound dosing solutions (1% final
(§15) DMSO). The pH of supplemented HBSS was 6.5 and 7.5 in the apical and basolateral compartments, respectively. The apical
(§16) compartment inserts were then placed into ‘companion’ plates containing fresh HBSS.
as §8
(§17) different occasions. On each plate atenolol and propanolol were run as controls. Compounds were quantified by LC-MS/MS analysis using a 5 point calibration curve. The starting concentration (C0) was determined from the dosing solution and
(§18) experimental recovery calculated from C0 and both apical and basolateral compartment concentrations. The permeability coefficient
(§19) (Papp) for each compound was calculated as: (dQ/dt)/(C0xA), where dQ/dt is the rate of permeation of the drug across the cells, C0
(§20) is the donor compartment concentration at time zero and A is the area of the cell monolayer.
(§21) Plasma protein binding. Plasma protein binding was assessed by equilibrium dialysis utilizing the HT-dialysis cell format with a
(§22) cellulose semi-permeable membrane (molecular weight cut-off of 5000 Da). Solutions of test compounds (1 µM, 0.5% final
(§23) DMSO concentration) were prepared in isotonic phosphate buffer (pH 7.4) and 100% pooled male CD-1 mouse plasma. The
(§24) buffer solution was added to one side of the membrane and the plasma solution to the other side. Incubations were performed in
(§25) Haloperidol was incubated in parallel as the control compound for each species. At the end of the incubation time, samples were taken from both sides of the membrane.
(§26) Following protein precipitation, the samples were analyzed by LC-MS/MS using two sets of calibration standards for protein free
(§27) (7 points) and protein containing solutions (6 points). Samples were quantified using standard curves prepared in the equivalent
(§28) matrix. The fraction unbound in plasma (fu) was calculated using the following equation:
(§29) Where, PC = sample concentration in protein containing side, PF = sample concentration in protein free side, and VCorrection =
(§30) correction factor for the volume shift i.e. ratio of the volume of the protein after dialysis to that before dialysis.

in vitro [7] = format: in vitro ADME, CD-1 mice; conditions: male, CD-1, mouse, microsomes, pH 7.4
[8] = Monkey (NHP) pharmacokinetic study; format: in vivo, male cynomolgus monkeys; conditions: cynomolgus monkey, male Cynomolgus
Procedure: as §1

Caco-2 permeability = conditions: human, 10 µM
Procedure: as §2, §3, §4, §5, §6, §13, §14, §15, §16, §8, §17, §18, §19, §20, §21, §22, §23, §24, §25, §26, §27, §28, §29, §30

Caco-2 cells = assay: Caco-2 permeability
Procedure: as §2, §3, §4, §5, §6, §13, §14, §15, §16, §8, §17, §18, §19, §20, §21, §22, §23, §24, §25, §26, §27, §28, §29, §30

[9] = Plasma protein binding (equilibrium dialysis), human; conditions: pH 7.4, Human fu (unbound fraction)
Procedure: as §2, §3, §4, §5, §6, §7, §8, §9, §10, §11, §12

SMYD2 [10] = target: T1, SMYD2 (Homo sapiens, UniProt Q9NRG4); assay: ITC binding assay EPZ033294/SMYD2; design: Full length FLAG-SMYD2 and C-terminally Avi-tagged full length SMYD2 (SMYD2-Avi) were cloned into pFastbac vectors; FLAG (N); His tag with TEV cleavage site (N, cleaved yes); made in house; host or cells: Sf9 insect cells (baculovirus); conditions: 25°C
Procedure: The assay buffer contained 20 mM Tris-HCl pH 8.0, 100 mM sodium chloride, 1 mM TCEP, 5% glycerol, 50 μM S-adenosylmethionine (SAM), and 0.1% DMSO. […] The assay background signal was generated by injecting compound into buffer in the absence of enzyme and subtracted from the experimental data. The binding isotherm was fitted using the single site model in the Origin software for data analysis (OriginLab, Northampton, MA).

SMYD2 [11] = target: T1, SMYD2; assay: SPR binding assay EPZ033294/SMYD2 (SensiQ); design: Full length FLAG-SMYD2 and C-terminally Avi-tagged full length SMYD2 (SMYD2-Avi) were cloned into pFastbac vectors; FLAG (N); His tag with TEV cleavage site (N, cleaved yes); made in house; host or cells: Sf9 insect cells (baculovirus); conditions: 15°C, 10 µM SAM in running buffer; read-out: dissociation constant (KD) by SPR
Procedure: The running buffer contained 25 mM Tris-HCl pH 8.0, 150 mM NaCl, 5 mM DTT, 10 µM ZnCl2, 0.05% Tween-20, 10 µM SAM, and 2% DMSO. Avi-tagged biotinylated SMYD2 was immobilized on a neutravidin-coupled BioCap chip up to 6000 RU. Streptavidin on the reference cell was blocked with biocytin. […] Dissociation time was 1000 sec. Analysis of double-referenced data was performed using the 1:1 binding model in QDAT data analysis tool (SensiQ Technologies Inc.).

[12] = plasma, IV 1 mg/kg, read-out: CLp
[13] = plasma, IV 1 mg/kg, read-out: Vss

T1 sequence (Q9NRG4 whole entry): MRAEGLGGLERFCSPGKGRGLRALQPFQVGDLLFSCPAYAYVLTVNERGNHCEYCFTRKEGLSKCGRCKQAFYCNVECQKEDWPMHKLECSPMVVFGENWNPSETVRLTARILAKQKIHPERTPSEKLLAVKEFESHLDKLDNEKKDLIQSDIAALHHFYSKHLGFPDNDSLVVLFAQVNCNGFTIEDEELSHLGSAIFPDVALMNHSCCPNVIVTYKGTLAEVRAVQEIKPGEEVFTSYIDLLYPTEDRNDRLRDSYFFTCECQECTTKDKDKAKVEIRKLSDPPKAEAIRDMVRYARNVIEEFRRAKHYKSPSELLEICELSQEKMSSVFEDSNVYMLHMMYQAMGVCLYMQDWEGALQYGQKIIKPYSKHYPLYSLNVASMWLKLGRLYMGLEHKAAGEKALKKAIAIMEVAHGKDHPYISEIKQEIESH

Structure (SMILES): NC1CCC(S(=O)(=O)N2C3CCC2CC(NC(=O)c2cc(C4CC4)on2)C3)CC1 [EPZ028862, N-((1R,3R,5S)-8-((1r,4R)-4-aminocyclohexylsulfonyl)-8-aza-bicyclo[3.2.1]octan-3-yl)-5-cyclopropylisoxazole-3-carboxamide hydrochloride]
microsomal CLint at 1 µM (in vitro [1]): < 3 µL/min/mg
effect of 1 μM EPZ028862 on growth inhibition by trametinib (A549 cells): unaffected; also recorded: no effect
fraction unbound at 16 h, 1 µM (in vitro [2]): 0.71
CLint measured with hepatocytes, Rat ([3]; 1 µM): 3.5 µL/min/106 cells
hepatocyte CLint at 1 µM ([3]; male, Sprague-Dawley, rat, cryopreserved hepatocytes, read-out: CLint measured with hepatocytes, Rat): 5.2 µL/min/1e6 cells
MRT ([4]; plasma, IV 1 mg/kg, PO 5 mg/kg): 7 ± 0.2 h
bioavailability ([4]; plasma, IV 1 mg/kg, PO 5 mg/kg): 70 ± 6%
half-life ([4]; plasma, IV 1 mg/kg, PO 5 mg/kg): 5.4 ± 0.1 h
clearance [4, 12]: 0.834 ± 0.072 L/h/kg
Vd [4, 13]: 5.8 ± 0.6 L/kg
Tmax ([4]; plasma, PO 5 mg/kg): 1.5 ± 0.9 h
CL renal ([4]; urine and plasma, IV 1 mg/kg): 0.118 ± 0.0228 L/h/kg
IC50 [5]: > 25000 nM
Papp A→B at 120 min, 10 µM (in vitro [6]; Caco-2, Papp,AB): 4.6 nm/s
Papp B→A at 120 min, 10 µM (in vitro [6]; Caco-2, Papp,BA): 164 nm/s
microsomal CLint at 1 µM (in vitro [7]): 3.3 µL/min/mg
MRT ([8]; plasma, IV 1 mg/kg, PO 5 mg/kg): 7.4 ± 1.5 h
bioavailability ([8]; plasma, IV 1 mg/kg, PO 5 mg/kg): 62 ± 13%
half-life ([8]; plasma, IV 1 mg/kg, PO 5 mg/kg): 5.6 ± 1.3 h
clearance [8, 12]: 1.28 ± 0.204 L/h/kg
Vd [8, 13]: 9.5 ± 2.5 L/kg
Tmax ([8]; plasma, PO 5 mg/kg): 2 h
CL renal ([8]; urine and plasma, IV 1 mg/kg): 0.0636 ± 0.0504 L/h/kg

Papp A→B at 120 min, 10 µM (Caco-2 permeability; Caco-2, Papp,AB, apical pH 6.5 / basolateral pH 7.5, 120 min): 21.8 nm/s
Papp B→A at 120 min, 10 µM (Caco-2 permeability; Caco-2, Papp,BA, 120 min): 643 nm/s
Caco-2 assay outcome in words (Caco-2 cells): both permeable and an efflux substrate
fraction unbound at 16 h, 1 µM [9]: 0.13
stoichiometry of binding (N) by ITC (SMYD2 [10]): 0.7 ± 1 and 0.7
Kd (SMYD2 [10]; 50 μM SAM, three test occasions, read-out: dissociation constant KD by ITC): 8.3 ± 8.2 nM
Kd (SMYD2 [11]): 5 nM
Structure (SMILES): O=C(NC1CN(Cc2cnn(Cc3ccc(Cl)cc3)c2)C1)c1cn(C2CC2)nn1 [EPZ033294]
